Measured values from patent US20260226101A1, “PEPTIDE WITH ANTI-INFLAMMATORY AND ANTI-MICROBIAL ACTIVITY” (priority 2023, published 2026).

Experiment: in vitro
Type: cell-based, murine
Settings: mouse
Method: Cell viability of synthetic peptides on the growth of RAW264.7 cells was measured using the methyl thiazolyl tetrazolium (MTT) assay after 48 h. Briefly, exponentially growing macrophages RAW264.7 cells were mechanically scraped, plated at a density of 7×10^3 cells in 100 μl were seeded into each well of a 96-well plate then incubated for 12 h at 37° C. under 5% CO2, and then the cells are treated with test peptides: IS 111 ([…]) or dexamethasone ([…]) cells were incubated at 37° C. in the presence of 5% CO2 for 42 h. After incubation, the morphology of cells was examined under a microscope. Following incubation, MTT was added to the cells (20 μL at 5 mg/mL MTT dissolved in 1×PBS) and incubated for 4 hours in the presence of 5% CO2 at 37° C. Formazan crystals were dissolved by the addition of 100 μL of 100% DMSO per well. Plates were then gently swirled for 5 min at room temperature to dissolve the precipitate. Absorbance was monitored at 575 nm using a microplate reader. Maximum cytotoxicity (100%) was determined by cells incubated with 1% Triton X-100; PBS was used as a negative control. Cells without treatment were considered as control. The average absorbance for each sample group was used to evaluate cell viability.
Optical density (O.D.) was calculated as the difference between the absorbance at the reference wavelength and that at the test wavelength. The relative cell viability was determined by the amount of MTT converted to the insoluble formazan salt. The data were expressed as the mean percentage of viable cells when compared with untreated cells (control). The half maximal growth inhibitory concentration (IC50) value was calculated from the line equation of the dose-dependent curve of each compound. The results were compared with the cytotoxic activity of dexamethasone, a known anti-inflammatory drug. […] Percentages of cell viability and LC50 of cells were calculated: Percent cell viability was calculated as (O.D. of drug-treated sample/control O.D.)×100. The data were expressed as percent cell viability compared with control (dimethyl sulfoxide/NS). The experiment was carried out in four samples of each concentration.
The percentages of cell viability and LC50 of cells were calculated by using the formula below.
Where Absorbance control is the DMSO 0.1%-treated cell absorbance, and Absorbance sample is the test sample-treated cell absorbance. LC50 values were derived from dose-response curves, and data were expressed as the mean of three independent experiments. Statistical analyses involved Student's t-test and one-way ANOVA.
The test peptide IS 111 cytotoxic effects on RAW 264.7 mouse […] were determined by MTT assay. […] Cell viability was measured by MTT assay based on the conversion of yellow tetrazolium salt to form a purple formazan product. The viability of the RAW 264.7 cells can be seen on table 21.

For `C[C@@H]1C[C@H]2[C@@H]3CCC4=CC(=O)C=C[C@]4(C)[C@@]3(F)[C@@H](O)C[C@]2(C)[C@@]1(O)C(=O)CO` [Dexamethasone, dexamethasone, reference compound], the viability at 48 h, 7.8125 µg/mL was 102%, the viability at 48 h, 15.625 µg/mL was 90% and the viability at 48 h, 31.25 µg/mL was 82.8%. It also gave a viability at 48 h, 62.5 µg/mL of 91.4%, a viability at 48 h, 125 µg/mL of 96% and a viability at 48 h, 250 µg/mL of 90.8%. For the same compound, the viability at 48 h, 500 µg/mL was 84.6%.
